Results taken from PubChem BioAssay (NCI).
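Values below derive from 48-hour exposures of cells grown in 96-well plates, with endpoints linearly interpolated between the two concentrations bracketing the appropriate inhibition level. At the TGI there is no net growth.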

Experiments:
Experiment in all cases: NCI anticancer screen, dose series, 48 h
[1] = tested on: LOX IMVI melanoma
[2] = tested on: MDA-MB-231 breast
[3] = tested on: OVCAR-3 ovarian
[4] = tested on: HL-60(TB) leukemia
[5] = tested on: MDA-MB-435
[6] = tested on: A549 NSCLC
[7] = tested on: K-562 leukemia
[8] = tested on: COLO 205 colon
[9] = tested on: 786-0 renal
[10] = tested on: SR leukemia
[11] = tested on: RXF 393 renal
[12] = tested on: NCI-H522 lung
[13] = tested on: SNB-19 CNS
[14] = tested on: UACC-62 melanoma
[15] = tested on: NCI/ADR-RES ovarian
[16] = tested on: OVCAR-5 ovarian
[17] = tested on: SF-539 CNS
[18] = tested on: RPMI-8226 leukemia

| Structure (SMILES) | TGI [1] [µM] | TGI [2] [µM] | TGI [3] [µM] | TGI [4] [µM] | TGI [5] [µM] | TGI [6] [µM] | TGI [7] [µM] | TGI [8] [µM] | TGI [9] [µM] | TGI [10] [µM] | TGI [11] [µM] | TGI [12] [µM] | TGI [13] [µM] | TGI [14] [µM] | TGI [15] [µM] | TGI [16] [µM] | TGI [17] [µM] | TGI [18] [µM] |
| --- | --- | --- | --- | --- | --- | --- | --- | --- | --- | --- | --- | --- | --- | --- | --- | --- | --- | --- |
| O=C1C(Cl)=C(N2CCN(c3ccccn3)CC2)C(=O)c2ncccc21 | 3.59 | 3.39 | 3.21 | 4.79 | 3.17 | 19.5 | 5.78 | 3.31 | 3.12 | 3.2 | 3.7 | 2.83 | 25 | 5.52 | 7.44 | 21.8 | 3.94 | 5.7 |
| COc1ccc(N2C(=O)/C(=C\c3cccc(Oc4ccccc4)c3)SC2c2ccccc2)cc1 (configuration not stated) | > 100 | > 100 | > 100 | > 100 | > 100 | > 100 | > 100 | > 100 | > 100 | 59.2 | > 100 | 58.9 | > 100 | > 100 | > 100 | > 100 | 55.9 | 60.9 |
| COc1ccc(-c2nc(-c3cnccn3)n(COCCO)n2)cc1 | > 100 | > 100 | > 100 | > 100 | > 100 | > 100 | > 100 | > 100 | > 100 | > 100 | > 100 | > 100 | > 100 | > 100 | > 100 | > 100 | > 100 | > 100 |
| O=c1[nH]c(=O)n(C/C=C/CBr)nc1Br | 5.78 | 14.1 | 23.9 | 24.5 | 27.2 | 30.8 | 47.7 | 27.8 | 26.3 | 14.1 | 25.4 | 14.5 | 28.1 | 27.3 | 45.6 | 31.1 | 27.7 | 23.3 |
| CC[C@@H](/C=C\CCC1(C[C@@H](N)CCC=C(C)C)OCCO1)O[Si](C(C)C)(C(C)C)C(C)C | 18.3 | 33.6 | 38.8 | 23 | 34.9 | 33.1 | 31.1 | 27.3 | 31.8 | 14.5 | 37.3 | 39.7 | 32.8 | 31.9 | 33.9 | 31.1 | 34.1 | 38 |
| CC(Oc1ccccc1Cl)C(=O)NN1C(=O)CSC1c1ccc(Cl)cc1 (configuration not stated) | 39 | 32.7 | 61.9 | 23.5 | 31.1 | 41 | 30.6 | 37.1 | 28.6 | 22.9 | 33.4 | 32.8 | 50.2 | 34 | 61.4 | 48 | 65.3 | 38.4 |
| CN1C(=O)C23CCCCC2CC1(c1ccccc1)S3 (configuration not stated) | > 100 | > 100 | > 100 | > 100 | > 100 | > 100 | > 100 | > 100 | > 100 | > 100 | > 100 | > 100 | > 100 | > 100 | > 100 | > 100 | > 100 | > 100 |
| COc1cccc2cc(C(=O)Nc3ccccn3)c(=N)oc12 | > 100 | > 100 | 88.4 | 82.9 | > 100 | > 100 | > 100 | > 100 | > 100 | 16.5 | > 100 | > 100 | > 100 | > 100 | > 100 | > 100 | > 100 | > 100 |
| Cc1cc(C)n(CN(Cn2nc(C)cc2C)c2ccccc2)n1 | 23.8 | > 100 | 66.6 | 27.3 | 29.1 | > 100 | 46.1 | 28.1 | 48.5 | 14.9 | 38.9 | 52.8 | > 100 | 26.5 | 57.7 | 69.6 | 38.3 | 47.6 |
| O=C1C(Cl)C(c2cc3cc(Br)ccc3nc2Cl)N1c1c(Cl)cccc1Cl (configuration not stated) | 7.96 | > 25 | > 25 | > 25 | > 25 | > 25 | 18 | > 25 | > 25 | 10.7 | > 25 | 11.3 | > 25 | > 25 | > 25 | > 25 | 10.7 | 23 |
| CCC1=NC(C(F)(F)F)(C(F)(F)F)N=C(/N=C(/N)N(C)C(C(C)C)P(=O)(OC(C)C)OC(C)C)O1 (configuration not stated) | > 100 | > 100 | > 100 | > 100 | > 100 | > 100 | > 100 | > 100 | > 100 | > 100 | > 100 | > 100 | > 100 | > 100 | > 100 | > 100 | > 100 | > 100 |
| O=C(CN(c1ccc(S(=O)(=O)O)cc1)c1ccc(S(=O)(=O)O)cc1)Nn1cnc2ccc(S(=O)(=O)N(c3ccc(S(=O)(=O)O)cc3)c3ccc(S(=O)(=O)O)cc3)cc2c1=O | > 100 | > 100 | > 100 | > 100 | > 100 | > 100 | > 100 | > 100 | > 100 | > 100 | > 100 | > 100 | > 100 | > 100 | > 100 | > 100 | > 100 | > 100 |
| COc1ccccc1NC(=S)Nc1cc(C)ccn1 | > 100 | 60.7 | > 100 | > 100 | > 100 | > 100 | > 100 | > 100 | > 100 | > 100 | > 100 | > 100 | > 100 | > 100 | > 100 | > 100 | > 100 | > 100 |
| CCN(CC)CCNc1ccc(C)c2sc3ccccc3c(=O)c12 | 3.26 | 7.96 | 16.8 | 3.85 | 4.49 | 7.13 | 6.08 | 4.23 | 9.32 | 6.58 | 4.73 | 5.5 | 8.85 | 3.68 | 16.9 | 9.59 | 8.04 | 4.37 |
